Data: the NIST ThermoML archive (doi:10.1016/j.jct.2010.02.006)
Numbers after ± are expanded uncertainties.

Test: activity coefficient (dimensionless); of the first substance listed, at infinite dilution; xn = mol fraction of the nth substance listed
Conditions: 101.3 kPa, Liquid, Chromatography, x1 = 0

| Structure (SMILES) | activity coefficient (302.8 K) | activity coefficient (313.4 K) | activity coefficient (323.1 K) | activity coefficient (332.8 K) | activity coefficient (343.4 K) | activity coefficient (303.5 K) | activity coefficient (313.3 K) | activity coefficient (323.3 K) | activity coefficient (333.1 K) | activity coefficient (343.1 K) | activity coefficient (313.2 K) | further results |
| --- | --- | --- | --- | --- | --- | --- | --- | --- | --- | --- | --- | --- |
| CCCCCCCCC [nonane] + CCn1cc[n+](C)c1.N#C[B-](C#N)(C#N)C#N | 85 ± 7.4 | 78.1 ± 6.8 | 70.8 ± 6.1 | 63.5 ± 5.5 | 55.3 ± 4.8 | – | – | – | – | – | – | – |
| CCO [ethanol] + CCn1cc[n+](C)c1.N#C[B-](C#N)(C#N)C#N | – | – | – | – | – | 1.64 ± 0.14 | 1.5 ± 0.13 | 1.37 ± 0.12 | 1.27 ± 0.11 | 1.16 ± 0.1 | – | – |
| c1ccccc1 [benzene] + CCn1cc[n+](C)c1.N#C[B-](C#N)(C#N)C#N | – | – | – | – | – | – | 1.31 ± 0.11 | – | – | – | – | activity coefficient (303.6 K): 1.31 ± 0.11; activity coefficient (323.2 K): 1.34 ± 0.11; activity coefficient (333.3 K): 1.31 ± 0.11; activity coefficient (343.2 K): 1.3 ± 0.11 |
| Cc1ccccc1C [1,2-dimethylbenzene] + CCn1cc[n+](C)c1.N#C[B-](C#N)(C#N)C#N | – | – | – | – | – | – | 2.53 ± 0.22 | – | – | 2.54 ± 0.22 | – | activity coefficient (303.6 K): 2.49 ± 0.21; activity coefficient (323.2 K): 2.58 ± 0.22; activity coefficient (333.2 K): 2.56 ± 0.22 |
| Cc1cccc(C)c1 [1,3-dimethylbenzene] + CCn1cc[n+](C)c1.N#C[B-](C#N)(C#N)C#N | – | – | – | – | – | – | – | – | 3.01 ± 0.26 | 2.99 ± 0.26 | 2.99 ± 0.26 | activity coefficient (303.6 K): 2.92 ± 0.25; activity coefficient (323.2 K): 3.03 ± 0.26 |
| Cc1ccc(C)cc1 [1,4-dimethylbenzene] + CCn1cc[n+](C)c1.N#C[B-](C#N)(C#N)C#N | – | – | – | – | – | – | – | – | – | – | 2.85 ± 0.25 | activity coefficient (303.7 K): 2.78 ± 0.24; activity coefficient (323.2 K): 2.87 ± 0.25; activity coefficient (333.3 K): 2.85 ± 0.25; activity coefficient (343.2 K): 2.84 ± 0.24 |
| CCCCCC [hexane] + CCn1cc[n+](C)c1.N#C[B-](C#N)(C#N)C#N | 21 ± 1.8 | 17.4 ± 1.5 | 15.1 ± 1.3 | 12.5 ± 1.1 | 10.3 ± 0.89 | – | – | – | – | – | – | – |
| CCCCCCC [heptane] + CCn1cc[n+](C)c1.N#C[B-](C#N)(C#N)C#N | 37.6 ± 3.3 | 32.2 ± 2.8 | 28.1 ± 2.4 | 23.8 ± 2.1 | 19.9 ± 1.7 | – | – | – | – | – | – | – |
| CCc1ccccc1 [ethylbenzene] + CCn1cc[n+](C)c1.N#C[B-](C#N)(C#N)C#N | – | – | 3.05 ± 0.26 | – | – | – | – | – | – | – | 3 ± 0.26 | activity coefficient (303.6 K): 3 ± 0.26; activity coefficient (333.2 K): 2.97 ± 0.26; activity coefficient (343.3 K): 2.92 ± 0.25 |
| C#CCCCCCC [1-octyne] + CCn1cc[n+](C)c1.N#C[B-](C#N)(C#N)C#N | – | – | – | – | – | 9.64 ± 0.83 | 9.42 ± 0.81 | 9.11 ± 0.79 | 8.84 ± 0.76 | – | – | activity coefficient (342.8 K): 8.58 ± 0.74 |
| CO [methanol] + CCn1cc[n+](C)c1.N#C[B-](C#N)(C#N)C#N | – | – | – | – | – | 1.13 ± 0.09 | 1.05 ± 0.09 | 0.97 ± 0.08 | 0.91 ± 0.08 | 0.85 ± 0.07 | – | – |
| C=CCCCCCCCC [1-decene] + CCn1cc[n+](C)c1.N#C[B-](C#N)(C#N)C#N | – | – | – | – | – | 60.5 ± 5.2 | – | 51.5 ± 4.5 | 47.8 ± 4.1 | 43.4 ± 3.8 | 56 ± 4.8 | – |
| CCCCCCCC [octane] + CCn1cc[n+](C)c1.N#C[B-](C#N)(C#N)C#N | 58.9 ± 5.1 | 52.5 ± 4.5 | 46.7 ± 4 | 40.7 ± 3.5 | 34.9 ± 3 | – | – | – | – | – | – | – |
| C1CCCCC1 [cyclohexane] + CCn1cc[n+](C)c1.N#C[B-](C#N)(C#N)C#N | 13.8 ± 1.2 | 12.4 ± 1.1 | 11.2 ± 0.97 | 9.85 ± 0.85 | 8.64 ± 0.75 | – | – | – | – | – | – | – |
| C#CCCCCC [1-heptyne] + CCn1cc[n+](C)c1.N#C[B-](C#N)(C#N)C#N | – | – | – | – | – | 6.33 ± 0.55 | 6.15 ± 0.53 | 5.97 ± 0.52 | 5.78 ± 0.5 | 5.59 ± 0.48 | – | – |
| C#CCCC [1-pentyne] + CCn1cc[n+](C)c1.N#C[B-](C#N)(C#N)C#N | – | – | – | – | – | 2.72 ± 0.23 | 2.61 ± 0.23 | 2.5 ± 0.22 | 2.38 ± 0.21 | 2.29 ± 0.2 | – | – |
| CCCO [propan-1-ol] + CCn1cc[n+](C)c1.N#C[B-](C#N)(C#N)C#N | – | – | – | – | – | 2.12 ± 0.18 | 1.92 ± 0.17 | 1.74 ± 0.15 | 1.6 ± 0.14 | 1.46 ± 0.12 | – | – |
| CCCCC [pentane] + CCn1cc[n+](C)c1.N#C[B-](C#N)(C#N)C#N | 10.3 ± 0.89 | 8.21 ± 0.71 | 7.05 ± 0.61 | 5.92 ± 0.51 | 4.88 ± 0.42 | – | – | – | – | – | – | – |
| C=CCCCC [hex-1-ene] + CCn1cc[n+](C)c1.N#C[B-](C#N)(C#N)C#N | – | – | – | – | – | 11.3 ± 0.97 | – | 8.39 ± 0.72 | 7.35 ± 0.63 | 6.27 ± 0.54 | 9.74 ± 0.84 | – |
| C=CCCCCCC [oct-1-ene] + CCn1cc[n+](C)c1.N#C[B-](C#N)(C#N)C#N | – | – | – | – | – | 30.1 ± 2.6 | – | 24 ± 2.1 | 21.5 ± 1.9 | 19 ± 1.6 | 26.8 ± 2.3 | – |
| CC1CCCCC1 [methylcyclohexane] + CCn1cc[n+](C)c1.N#C[B-](C#N)(C#N)C#N | 20.7 ± 1.8 | 18.9 ± 1.6 | 16.9 ± 1.5 | 15.2 ± 1.3 | 13.3 ± 1.1 | – | – | – | – | – | – | – |
| Cc1ccccc1 [toluene] + CCn1cc[n+](C)c1.N#C[B-](C#N)(C#N)C#N | – | – | 1.98 ± 0.17 | – | – | – | – | – | – | – | 1.92 ± 0.16 | activity coefficient (303.6 K): 1.9 ± 0.16; activity coefficient (333.2 K): 1.94 ± 0.17; activity coefficient (343.3 K): 1.92 ± 0.16 |
| C#CCCCC [1-hexyne] + CCn1cc[n+](C)c1.N#C[B-](C#N)(C#N)C#N | – | – | – | – | – | 4.18 ± 0.36 | 4.04 ± 0.35 | 3.92 ± 0.34 | 3.77 ± 0.33 | 3.58 ± 0.31 | – | – |
